Test results from patent US11884675B2, “Heterocyclic compounds as triggering receptor expressed on myeloid cells 2 agonists and methods of use” (AMGEN INC., priority 2020, dated 2024).
pEC50: −log10 of the molar value.

molecular target: hTREM2 (Homo sapiens, UniProt Q9NZC2); experiment: TREM2 agonist potency by Syk phosphorylation (AlphaLisa) in HEK293T-hTREM2 cells, used for Examples 306-429; format: cell-based; design: expressed in transfected cells; host or cells: HEK293T (HEK293T-hTREM2 cells); settings: HEK293 Cells
In short: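 HEK293T cells expressing human TREM2 and DAP12, plated 20-24 h before, were exposed to compounds for 45 min at room temperature, then lysed. Phospho-Syk read by AlphaLisa; % activation from a standard curve and EC50 from a four-parameter log(agonist) fit.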

Sequence of hTREM2 (Q9NZC2 19-230): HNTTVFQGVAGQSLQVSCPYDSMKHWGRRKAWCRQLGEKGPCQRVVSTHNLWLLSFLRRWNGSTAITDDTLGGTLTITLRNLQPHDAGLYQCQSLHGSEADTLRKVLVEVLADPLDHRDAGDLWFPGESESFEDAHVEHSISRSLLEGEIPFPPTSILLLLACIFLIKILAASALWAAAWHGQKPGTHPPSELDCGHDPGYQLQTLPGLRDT
Sequence of hTREM2 (O43914 22-113 partner): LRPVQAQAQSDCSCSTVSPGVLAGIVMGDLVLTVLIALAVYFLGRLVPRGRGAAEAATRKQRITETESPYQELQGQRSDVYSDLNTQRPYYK

`Cc1cnc2c(-c3ccc(Cl)cc3F)nc(N3C[C@H](C)O[C@@H](c4cnn(C5CC5)c4)C3)nc2n1` (racemic) [Example 374, 4-(4-(4-chloro-2-fluorophenyl)-7-methylpteridin-2-yl)-2-(1-cyclopropyl-1H-pyrazol-4-yl)-6-methylmorpholine] and `Cc1nc2nc(N3C[C@H](C)O[C@@H](c4cnn(C5CC5)c4)C3)nc(-c3ccc(Cl)cc3F)c2nc1C` (racemic) [Example 372, 4-(4-(4-chloro-2-fluorophenyl)-6,7-dimethylpteridin-2-yl)-2-(1-cyclopropyl-1H-pyrazol-4-yl)-6-methylmorpholine] cannot be ordered by pEC50: no less than 7.30 for the first, no less than 7.30 for the second.

`Cc1ccc2c(-c3ccc(Cl)cc3F)nc([C@H]3C[C@@H](C)O[C@@H](c4cnn(C5CC5)c4)C3)nc2n1` [Example 414, 4-(4-chloro-2-fluorophenyl)-2-((2R,4S,6R)-2-(1-cyclopropyl-1H-pyrazol-4-yl)-6-methyltetrahydro-2H-pyran-4-yl)-7-methylpyrido[2,3-d]pyrimidine] and `Cc1nc2cc([C@H]3C[C@@H](C)O[C@@H](c4cnn(C5CC5)c4)C3)nc(-c3ccc(F)cc3F)c2nc1C` [Example 380, 7-[(2R,4S,6R)-2-(1-cyclopropylpyrazol-4-yl)-6-methyl-tetrahydropyran-4-yl]-5-(2,4-difluorophenyl)-2,3-dimethyl-pyrido[3,4-b]pyrazine] cannot be ordered by pEC50: no less than 7.30 for the first, no less than 7.30 for the second.

`Cc1cc([C@H]2C[C@@H](c3cc4nc(C)c(C)cc4c(-c4ccc(Cl)cc4F)n3)CCO2)ccn1` (racemic) [Example 401, 5-(4-chloro-2-fluoro-phenyl)-2,3-dimethyl-7-[2-(2-methyl-4-pyridyl)tetrahydropyran-4-yl]-1,6-naphthyridine] and `Cc1cc([C@H]2C[C@H](c3cc4nc(C)c(C)cc4c(-c4ccc(F)cc4F)n3)CCO2)ccn1` (racemic) [Example 400, 5-(2,4-difluorophenyl)-2,3-dimethyl-7-[2-(2-methyl-4-pyridyl)tetrahydropyran-4-yl]-1,6-naphthyridine] cannot be ordered by pEC50: no less than 7.30 for the first, no less than 7.30 for the second.

`Cc1nc2nc([C@H]3CCO[C@@H](c4cnn(C5CC5)c4)C3)nc(C34CC(C(F)(F)F)(C3)C4)c2nc1C` (stereo in doubt) [Example 366, 2-(2-(1-cyclopropyl-1H-pyrazol-4-yl)tetrahydro-2H-pyran-4-yl)-6,7-dimethyl-4-(3-(trifluoromethyl)bicyclo[1.1.1]pentan-1-yl)pteridine] and `Cc1nc2nc(N3C[C@H](C)O[C@@H](c4cnn(C5CC5)c4)C3)nc(C34CC(C(F)(F)F)(C3)C4)c2nc1C` [Example 408, (2S,6S)-2-(1-cyclopropyl-1H-pyrazol-4-yl)-4-(6,7-dimethyl-4-(3-(trifluoromethyl)bicyclo[1.1.1]pentan-1-yl)pteridin-2-yl)-6-methylmorpholine] cannot be ordered by pEC50: no less than 7.30 for the first, no less than 7.30 for the second.

`Cc1nc2cc(N3CCOC(c4cnn(C5CC5)c4)C3)nc(-c3ccc(Cl)cc3F)c2nc1C` (centres unmarked) [Example 348, 4-(5-(4-chloro-2-fluorophenyl)-2,3-dimethylpyrido[3,4-b]pyrazin-7-yl)-2-(1-cyclopropyl-1H-pyrazol-4-yl)morpholine] and `Cc1nc2nc(N3CCOC(c4cnn(C5CC5)c4)C3)nc(-c3ccc(Cl)cc3F)c2nc1C` (centres unmarked) [Example 381, 4-[4-(4-chloro-2-fluoro-phenyl)-6,7-dimethyl-pteridin-2-yl]-2-(1-cyclopropylpyrazol-4-yl)morpholine] cannot be ordered by pEC50: no less than 7.30 for the first, no less than 7.30 for the second.

`Cc1cc([C@H]2C[C@@H](c3cc4nc(C)c(C)nc4c(-c4ccc(F)cc4F)n3)CCO2)ccn1` [Example 317, 5-(2,4-difluorophenyl)-2,3-dimethyl-7-[(2R,4S)-2-(2-methyl-4-pyridyl)tetrahydropyran-4-yl]pyrido[3,4-b]pyrazine] and `Cc1cc([C@@H]2C[C@H](c3cc4nc(C)c(C)nc4c(-c4ccc(F)cc4F)n3)CCO2)ccn1` [Example 316, 5-(2,4-difluorophenyl)-2,3-dimethyl-7-[(2S,4R)-2-(2-methyl-4-pyridyl)tetrahydropyran-4-yl]pyrido[3,4-b]pyrazine] cannot be ordered by pEC50: no less than 7.30 for the first, 6.30 to 7.30 for the second.

Compared with `Cc1cc(C2CN(c3cc4nc(C)cnc4c(C45CC(C(F)(F)F)(C4)C5)n3)CCO2)ccn1` (centres unmarked) [Example 376, 2-(2-methyl-4-pyridyl)-4-[2-methyl-5-[3-(trifluoromethyl)-1-bicyclo[1.1.1]pentanyl]pyrido[3,4-b]pyrazin-7-yl]morpholine], `Cc1cc(C2CC(c3cc4nc(C)c(C)nc4c([C@]45C[C@](C(F)(F)F)(C4)C5)n3)CCO2)ccn1` (mixture of isomers) [Example 319, 2,3-dimethyl-7-(2-(2-methylpyridin-4-yl)tetrahydro-2H-pyran-4-yl)-5-(3-(trifluoromethyl)bicyclo[1.1.1]pentan-1-yl)pyrido[3,4-b]pyrazine] is higher in pEC50: 5.52 to 6.30 for the first, no less than 7.30 for the second. The second is the more potent here.

`Cc1cc([C@@H]2CN(c3nc(-c4ccc(Cl)c(F)c4F)c4nc(C)c(C)nc4n3)CCO2)ccn1` [Example 364, (R)-4-(4-(4-chloro-2,3-difluorophenyl)-6,7-dimethylpteridin-2-yl)-2-(2-methylpyridin-4-yl)morpholine] and `Cc1cc(C2CN(c3nc(-c4ccc(Cl)c(F)c4F)c4nc(C)c(C)nc4n3)CCO2)ccn1` (centres unmarked) [Example 337, 4-(4-(4-chloro-2,3-difluorophenyl)-6,7-dimethylpteridin-2-yl)-2-(2-methylpyridin-4-yl)morpholine] cannot be ordered by pEC50: no less than 7.30 for the first, no less than 7.30 for the second.

`Cc1cnc2c(-c3ccc(F)cc3F)nc(N3C[C@H](C)O[C@@H](c4cnn(C5CC5)c4)C3)cc2n1` (racemic) [Example 361, 2-(1-cyclopropyl-1H-pyrazol-4-yl)-4-(5-(2,4-difluorophenyl)-2-methylpyrido[3,4-b]pyrazin-7-yl)-6-methylmorpholine] and `Cc1cc(C2CN(c3cc4nc(C)cnc4c(-c4ccc(F)cc4F)n3)CCO2)ccn1` (centres unmarked) [Example 313, 4-(5-(2,4-difluorophenyl)-2-methylpyrido[3,4-b]pyrazin-7-yl)-2-(2-methylpyridin-4-yl)morpholine] cannot be ordered by pEC50: 6.30 to 7.30 for the first, no less than 7.30 for the second.

`Cc1nc2nc([C@H]3CCO[C@@H](c4cnn(C5CC5)c4)C3)nc(-c3ccc(C(F)(F)F)cc3F)c2nc1C` [Example 413, 2-((2R,4S)-2-(1-cyclopropyl-1H-pyrazol-4-yl)tetrahydro-2H-pyran-4-yl)-4-(2-fluoro-4-(trifluoromethyl)phenyl)-6,7-dimethylpteridine] and `Cc1cc([C@H]2CN(c3nc(-c4ccc(Cl)c(F)c4F)c4nc(C)c(C)nc4n3)CCO2)ccn1` [Example 363, (S)-4-(4-(4-chloro-2,3-difluorophenyl)-6,7-dimethylpteridin-2-yl)-2-(2-methylpyridin-4-yl)morpholine] cannot be ordered by pEC50: no less than 7.30 for the first, no less than 7.30 for the second.

`Cc1cc(C2CC(c3cc4nc(C)ccc4c(-c4ccc(F)cc4F)n3)CCO2)ccn1` (centres unmarked) [Example 326, 5-(2,4-difluorophenyl)-2-methyl-7-(2-(2-methylpyridin-4-yl)tetrahydro-2H-pyran-4-yl)-1,6-naphthyridine] and `Cc1cc([C@H]2C[C@@H](c3cc4nc(C)cnc4c(-c4ccc(C(F)(F)F)nc4)n3)CCO2)ccn1` (racemic) [Example 308, 2-methyl-7-(2-(2-methylpyridin-4-yl)tetrahydro-2H-pyran-4-yl)-5-(6-(trifluoromethyl)pyridin-3-yl)pyrido[3,4-b]pyrazine] cannot be ordered by pEC50: no less than 7.30 for the first, 6.30 to 7.30 for the second.

`Cc1cc(C2CN(c3cc4nc(C)c(C)nc4c(-c4ccc(C(F)(F)F)nc4)n3)CCO2)ccn1` (centres unmarked) [Example 312, 4-(2,3-dimethyl-5-(6-(trifluoromethyl)pyridin-3-yl)pyrido[3,4-b]pyrazin-7-yl)-2-(2-methylpyridin-4-yl)morpholine] was tested, and the pEC50 was no less than 7.30.
